The target in this assay is T1, STAT1 (Homo sapiens, UniProt P42224).
T1 sequence (P42224 1-750): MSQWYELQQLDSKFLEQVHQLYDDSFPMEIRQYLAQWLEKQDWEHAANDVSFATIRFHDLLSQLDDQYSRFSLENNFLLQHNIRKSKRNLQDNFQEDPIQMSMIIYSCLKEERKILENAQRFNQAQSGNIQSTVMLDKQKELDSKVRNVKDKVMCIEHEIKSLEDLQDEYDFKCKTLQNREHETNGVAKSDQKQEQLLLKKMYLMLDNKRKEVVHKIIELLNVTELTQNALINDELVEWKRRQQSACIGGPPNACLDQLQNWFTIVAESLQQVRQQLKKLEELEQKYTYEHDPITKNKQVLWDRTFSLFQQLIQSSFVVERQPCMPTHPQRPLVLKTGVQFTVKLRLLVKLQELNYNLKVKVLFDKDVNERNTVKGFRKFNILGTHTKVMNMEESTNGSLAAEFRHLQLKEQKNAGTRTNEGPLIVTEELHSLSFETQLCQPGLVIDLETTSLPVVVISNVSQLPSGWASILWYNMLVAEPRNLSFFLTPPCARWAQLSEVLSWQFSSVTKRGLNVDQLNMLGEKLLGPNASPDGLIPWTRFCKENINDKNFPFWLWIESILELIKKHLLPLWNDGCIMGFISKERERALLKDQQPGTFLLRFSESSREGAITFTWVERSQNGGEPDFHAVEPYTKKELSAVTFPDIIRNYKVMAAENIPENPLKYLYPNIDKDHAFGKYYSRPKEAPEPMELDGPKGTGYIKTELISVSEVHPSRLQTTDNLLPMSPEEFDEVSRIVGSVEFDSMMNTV
The assay can be described thus: Competitive fluorescence polarization (FP) assay, STAT1. In kind it is binding. The source says:
Screening of chemical libraries
Screening of chemical libraries comprising approximately 5000 known bioactive compounds in fluorescence polarization-based assays against phosphorylation-dependent protein-protein interaction domains, including STAT proteins, has been described.[1] PPADS was purchased from Sigma-Aldrich, and iso-PPADS from Bio-Techne.
Fluorescence polarization assays
Competitive fluorescence polarization (FP) assays for STAT1,[2] STAT3,[3] STAT4,[4] STAT5a,[5] STAT5b[6] and STAT6[1] were performed as previously described. Briefly, peptide binding to proteins was analyzed using the following carboxyfluorescein (CF) -labelled pepti des at a concentration of 10 nM: STAT1: 5-CF-GpYDKPHVL-OH, STAT3: 5-CF-GpYLPQTV -NH2, STAT4: 5-CF-GpYLPQNID-OH, STAT5a and STAT5b: 5-CF-GpYLVLDKW-OH, STAT6: 5- […]
CFGp[…]-OH. Proteins were used at a final concentration representing the approximate Kd value for binding of the corresponding peptide to the protein, namely 65 nM for STAT1, 65 nM for STAT3, 35 nM for STAT4, 125 nM for STAT5a, 65 nM for STAT5b and 75 nM for STAT6. Assays were carried out in buffer containing 10 mM Tris/HCl, 50 mM NaCl, 1 mM EDTA, 0.1% NP-40 substitute and 2% DMSO, with 1 mM reducing agent where applicable, at pH 8.0. […] FP was measured using an Infinite F500 plate reader (Tecan) and measurements were converted into percent inhibition according to […]
Background: Polarisation of emitted light reports the rotation of a fluorescent probe.

As a reminder, the inhibition is the drop in the measured response relative to a control, in per cent. A high value points to a response far below the control. A word on the IC50: it is the midpoint of a concentration-inhibition curve. High values mean lower potency, low ones higher potency.

Under “at 100 μM, the highest concentration tested”, `Cc1nc(/N=N/c2cc(S(=O)(=O)O)ccc2S(=O)(=O)O)c(COP(=O)(O)O)c(C=O)c1O` [iso‐PPADS] returned an inhibition at 100 µM of 41 ± 0.4%. As to `Cc1nc(/N=N/c2ccc(S(=O)(=O)O)cc2S(=O)(=O)O)c(COP(=O)(O)O)c(C=O)c1O` [PPADS, pyridoxalphosphate‐6‐azophenyl‐2',4'‐disulfonic acid], the IC50 (no reducing agent, 1 h) worked out at 87.4 ± 6.6 µM.

Source of the values: article PMC12442245, “Activity Analysis of the P2X Receptor Antagonist PPADS against Signal Transducer and Activator of Transcription Proteins” (Chembiochem, 2025).
